Measurements as given in patent US11497751B2, “Modulators of Rho-associated protein kinase” (Redx Pharma PLC, priority 2018, dated 2022).

Target: T1, N-terminal 6His-tagged ROCK2 catalytic domain 11-552 (Homo sapiens, UniProt O75116)
T1 construct: N-terminal 6His-tagged ROCK2 catalytic domain 11-552; 6His (N); purchased Dundee University, UK; host or cells: baculovirus expression system
Assay: ROCK2 binding activity: ROCK2 inhibition, ADP-Glo Kinase Assay
Assay type: biochemical
Settings: 1.25 nM ROCK2, 100 μM long S6 peptide, 20 μM ATP; 1 hour pre-incubation; read-out: ADP-Glo kinase activity assay ROCK2 Category
Protocol: Assay for ROCK2 inhibition was performed using the protein construct N-terminal 6His-tagged ROCK2 catalytic domain 11-552 (Dundee University, UK). Protein was purified from a baculovirus expression system. Long S6 peptide ([…]) was used as substrate. Kinase reactions were carried out in 15 μl volume in a 96-well plate (black, half area) using 1.25 nM constitutively active ROCK2 kinase, 100 μM long S6 peptide, 20 μM ATP and test compound in DMSO (or DMSO only for controls). The final concentration of DMSO was 1%. Assay buffer was 50 mM HEPES pH 7.5 supplemented with 0.2 mM EDTA, 10 mM magnesium acetate, 0.01% Tween-20, 1 mM DTT and 0.01% BSA. Test compounds were pre-incubated with ROCK2 kinase for 1 hour before addition of ATP and long S6 peptide. After incubation for a further 1 hour, the amount of ADP produced was measured using ADP-Glo Kinase Assay (Promega) as per manufacturer's instructions. The luminescence was measured on a PHERAstar FS (BMG Labtech). The concentration of test compound required to inhibit ADP production by 50% (the IC50) was calculated using a four-parameter logistic function with software by Dotmatics.
The category “+” refers to compounds with a ROCK2 IC50 value of >10 μM. The category “++” refers to compounds with a ROCK2 IC50 value of 10 to 3 μM. The category “+++” refers to compounds with a ROCK2 IC50 value of 3 to 0.3 μM. The category “++++” refers to compounds with a ROCK2 IC50 value of <0.3 μM.

T1 sequence (O75116 11-552): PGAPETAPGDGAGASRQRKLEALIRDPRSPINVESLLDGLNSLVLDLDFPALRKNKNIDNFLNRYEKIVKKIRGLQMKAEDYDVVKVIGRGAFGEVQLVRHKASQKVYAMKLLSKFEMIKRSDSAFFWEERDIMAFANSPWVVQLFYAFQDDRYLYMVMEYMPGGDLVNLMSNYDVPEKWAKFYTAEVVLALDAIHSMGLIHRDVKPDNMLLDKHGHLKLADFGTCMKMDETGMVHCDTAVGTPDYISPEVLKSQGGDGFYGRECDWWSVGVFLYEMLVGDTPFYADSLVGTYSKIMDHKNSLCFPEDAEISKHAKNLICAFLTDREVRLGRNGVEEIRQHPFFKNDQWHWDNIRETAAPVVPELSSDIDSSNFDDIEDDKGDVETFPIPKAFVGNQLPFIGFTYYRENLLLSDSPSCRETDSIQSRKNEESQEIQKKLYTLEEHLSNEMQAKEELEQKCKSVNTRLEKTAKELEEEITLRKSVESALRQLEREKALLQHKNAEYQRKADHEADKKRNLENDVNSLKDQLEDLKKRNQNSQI

Row | Structure (SMILES) | IC50
1 | O=C(COc1ccc(-c2nnc(Nc3ccc4[nH]ncc4c3)[nH]2)cc1)N[C@@H]1CCNC1 [Example 157] | < 300 nM
2 | Cn1nc(-c2cnn(Cc3ccccc3)c2)nc1Nc1ccc2[nH]ncc2c1Cl [Example 60] | 300 to 3000 nM
3 | COc1cc(-c2nc(Nc3ccc4[nH]ncc4c3Cl)n(-c3ccccn3)n2)ccc1C(=O)NCC(F)(F)F [Example 153] | < 300 nM
4 | COc1cc(-c2nc(Nc3ccc4[nH]ncc4c3C3CC3)n(C)n2)ccc1C(=O)NCC(F)(F)F [Example 280] | < 300 nM
5 | COc1cc(-c2nc(Nc3ccc4[nH]ncc4c3C)n(CC(C)C)n2)ccc1C(=O)NCC(F)(F)F [Example 455] | < 300 nM
6 | COc1cc(-c2nnc(Nc3ccc4[nH]ncc4c3)[nH]2)ccc1OCc1nnc(C)o1 [Example 40] | 300 to 3000 nM
7 | Cn1nc(-c2ccc(O)cc2)nc1Nc1ccc2[nH]ncc2c1Cl [Example 91] | < 300 nM
8 | CN1CCc2cc(-c3nc(Nc4ccc5[nH]ncc5c4Cl)n(C)n3)ccc2C1 [Example 367] | 3000 to 10000 nM
9 | Cn1nc(-c2ccc(C(=O)NCC(F)(F)F)nc2)nc1Nc1ccc2[nH]ncc2c1C1CC1 [Example 378] | < 300 nM
10 | Cn1nc(-c2ccc(C(=O)N[C@H]3C[C@@H]3F)cc2)nc1Nc1ccc2[nH]ncc2c1C1CC1 [Example 299] | < 300 nM
11 | CNC(=O)Cc1ccc(-c2nc(Nc3ccc4[nH]ncc4c3Cl)n(C)n2)cc1OC [Example 57] | 300 to 3000 nM
12 | COCCn1nc(-c2ccc(C(=O)NCC(F)(F)F)c(OC)c2)nc1Nc1ccc2[nH]ncc2c1C [Example 448] | < 300 nM
13 | CC(C)CC(=O)NCCOc1ccc(-c2nnc(Nc3ccc4[nH]ncc4c3)[nH]2)cc1 [Example 223] | 3000 to 10000 nM
14 | COc1cc(-c2nc(Nc3ccc4[nH]ncc4c3Cl)n(C)n2)ccc1OCC(=O)NC1CCNC1 (stereo not shown) [Example 49] | < 300 nM
15 | Cn1nc(-c2ccc3c(c2)CCN(C(=O)C2CC2)C3)nc1Nc1ccc2[nH]ncc2c1Cl [Example 238] | < 300 nM
16 | CCNC(=O)c1ccc(-c2nc(Nc3ccc4[nH]ncc4c3)n(C)n2)cc1 [Example 324] | < 300 nM
17 | COCCNC(=O)COc1ccc(-c2nc(Nc3ccc4[nH]ncc4c3Cl)n(C)n2)cc1OC [Example 242, 2-[4-[5-[(4-chloro-1H-indazol-5-yl)amino]-1-methyl-1,2,4-triazol-3-yl]-2-methoxy-phenoxy]-N-(2-methoxyethyl)acetamide] | < 300 nM
18 | COc1cc(-c2nc(Nc3ccc4[nH]ncc4c3Cl)n(-c3ccccc3)n2)ccc1OCC(=O)NC1CCNC1 (stereo not shown) [Example 149] | < 300 nM
19 | CN1CC(NC(=O)c2ccc(-c3nc(Nc4ccc5[nH]ncc5c4Cl)n(C)n3)cc2)C1 [Example 263] | 300 to 3000 nM
20 | COc1cc(-c2nc(Nc3ccc4[nH]ncc4c3Cl)n(CCN3CCOCC3)n2)ccc1OCC(=O)NC(C)C [Example 434] | < 300 nM
21 | CN(C)CCNC(=O)c1ccc(-c2nc(Nc3ccc4[nH]ncc4c3Cl)n(C)n2)cc1 [Example 94] | < 300 nM
22 | COc1cc(-c2nc(Nc3ccc4[nH]ncc4c3Cl)n(C)n2)ccc1O [Example 101] | < 300 nM

Row | Structure (SMILES) | IC50
23 | COc1cc(-c2nnc(Nc3ccc4[nH]ncc4c3)[nH]2)ccc1OCC(=O)NC1CCC1 [Example 165] | < 300 nM
24 | CCNC(=O)c1ccc(-c2nc(Nc3ccc4[nH]ncc4c3)n(C)n2)c(C(F)(F)F)c1 [Example 408] | 300 to 3000 nM
25 | Cn1nc(-c2ccc(C(=O)NC3(C)CC3)cc2)nc1Nc1ccc2[nH]ncc2c1Cl [Example 258] | < 300 nM
26 | COc1cc(-c2nc(Nc3ccc4[nH]ncc4c3C3CC3)n(C)n2)cnc1C(=O)NC1CC1 [Example 379] | 300 to 3000 nM
27 | CCC(C)NC(=O)c1ccc(-c2nc(Nc3ccc4[nH]ncc4c3C3CC3)n(C)n2)cc1 (stereo not shown) [Example 282] | < 300 nM
28 | CC(C)NC(=O)COc1ccc(-c2nc(Nc3ccc4[nH]ncc4c3Cl)n(C)n2)c(F)c1 [Example 355] | < 300 nM
29 | CC(=O)NCCOc1ccc(-c2nnc(Nc3ccc4[nH]ncc4c3)[nH]2)cc1 [Example 221] | 300 to 3000 nM
30 | COc1cc(-c2nc(N(C)c3ccc4[nH]ncc4c3)n(C)n2)ccc1OCC(=O)NC(C)C [Example 46] | > 10000 nM
31 | Cn1nc(C2=CCOCC2)nc1Nc1ccc2[nH]ncc2c1Cl [Example 98] | > 10000 nM
32 | Cc1ccc(-c2nc(Nc3ccc4[nH]ncc4c3Cl)n(C)n2)cn1 [Example 109] | 3000 to 10000 nM
33 | CCNC(=O)c1ccc(-c2nc(Nc3ccc4[nH]ncc4c3)n(C)n2)cc1Cl [Example 325] | 300 to 3000 nM
34 | CS(=O)(=O)NCCOc1ccc(-c2nnc(Nc3ccc4[nH]ncc4c3)[nH]2)cc1 [Example 220, N-[2-[4-[5-(1H-Indazol-5-ylamino)-4H-1,2,4-triazol-3-yl]phenoxy]ethyl]methanesulfonamide] | 300 to 3000 nM
35 | Cn1nc(-c2ccc(Oc3ccccc3)cc2)nc1Nc1ccc2[nH]ncc2c1Cl [Example 137] | 300 to 3000 nM
36 | COc1cc(OCC(=O)NC(C)C)ccc1-c1nc(Nc2ccc3[nH]ncc3c2Cl)n(C)n1 [Example 353] | < 300 nM
37 | CN(C)C(=O)c1ccc(-c2nc(Nc3ccc4[nH]ncc4c3Cl)n(C)n2)cc1 [Example 82] | 300 to 3000 nM
38 | CC(C)NC(=O)COc1ccc(-c2nc(Nc3ccc4[nH]ncc4c3)n(C)n2)cc1F [Example 473] | < 300 nM
39 | Cn1nc(-c2ccc(CNS(=O)(=O)c3cccc(Cl)c3)cc2)nc1Nc1ccc2[nH]ncc2c1Cl [Example 374] | < 300 nM
40 | CCN1CCc2cc(-c3nc(Nc4ccc5[nH]ncc5c4C4CC4)n(C)n3)ccc2C1C (stereo not shown) [Example 249, 4-cyclopropyl-N-[5-(2-ethyl-1-methyl-3,4-dihydro-1H-isoquinolin-6-yl)-2-methyl-1,2,4-triazol-3-yl]-1H-indazol-5-amine] | 3000 to 10000 nM
41 | CC(C)NC(=O)COc1ccc(-c2nc(Nc3ccc4[nH]ncc4c3)n(C)n2)c(F)c1F [Example 411] | < 300 nM
42 | CN(C)c1ccc(-c2nc(Nc3ccc4[nH]ncc4c3Cl)n(C)n2)cn1 [Example 127] | 300 to 3000 nM
43 | COc1cc(-c2nc(Nc3cnc4[nH]ncc4c3)n(C)n2)ccc1C(=O)NC1CC1 [Example 332] | 3000 to 10000 nM
44 | COc1cc(-c2nc(Nc3ccc4[nH]ncc4c3Cl)n(C)n2)ccc1OCC(=O)NC1CC(O)C1 (stereo not shown) [Example 214] | < 300 nM

Row | Structure (SMILES) | IC50
45 | Cn1nc(-c2ccc(-c3ccccn3)cc2)nc1Nc1ccc2[nH]ncc2c1C1CC1 [Example 390] | < 300 nM
46 | Cn1nc(-c2ccc(S(N)(=O)=O)cc2)nc1Nc1ccc2[nH]ncc2c1Cl [Example 125] | < 300 nM
47 | COc1cc(-c2nc(Nc3ccc4[nH]ncc4c3Cl)n(C)n2)ccc1OCC(=O)NC(C)c1ccccn1 (stereo not shown) [Example 215] | < 300 nM
48 | Cn1nc(-c2ccc(C(=O)NCC(F)(F)F)cc2)nc1Nc1ccc2[nH]ncc2c1Cl [Example 171] | < 300 nM
49 | Cc1cc(-c2nnc(Nc3ccc4[nH]ncc4c3)[nH]2)ccc1OCC(=O)NC(C)C [Example 10] | < 300 nM
50 | Cn1nc(-c2ccc3c(c2)OCCO3)nc1Nc1ccc2[nH]ncc2c1Cl [Example 72] | 300 to 3000 nM
51 | Cn1nc(-c2ccc(C(=O)NC3CCC(F)(F)C3)cc2)nc1Nc1ccc2[nH]ncc2c1C1CC1 (stereo not shown) [Example 298] | < 300 nM
52 | COc1cc(-c2nc(Nc3ccc4[nH]ncc4c3Cl)n(C)n2)ccc1C(=O)N1CCOCC1 [Example 172] | 300 to 3000 nM
53 | COc1cc(-c2nc(Nc3ccc4[nH]ncc4c3Cl)n(C)n2)ccc1C(N)=O [Example 203] | < 300 nM
54 | COc1cccc(-c2nnc(Nc3ccc4[nH]ncc4c3)[nH]2)c1 [Example 2] | 300 to 3000 nM
55 | CC(C)NC(=O)COc1ccc(-c2nc(Nc3ccc4[nH]ncc4c3Cl)n(C)n2)cc1C(F)(F)F [Example 348] | < 300 nM
56 | CCNC(=O)c1ccc(-c2nc(Nc3ccc4[nH]ncc4c3C3CC3)n(C)n2)cc1 [Example 251, 4-[5-[(4-cyclopropyl-1H-indazol-5-yl)amino]-1-methyl-1,2,4-triazol-3-yl]-N-ethyl-benzamide] | < 300 nM
57 | COc1cc(-c2nc(Nc3ccc4[nH]ncc4c3C)n(C3CC3)n2)ccc1C(=O)NCC(F)(F)F [Example 456] | < 300 nM
58 | Cn1nc(-c2ccc(C(=O)NCC(C)(C)C)cc2)nc1Nc1ccc2[nH]ncc2c1C1CC1 [Example 289] | < 300 nM
59 | Cc1cc(OCC(=O)NC(C)C)ccc1-c1nnc(Nc2ccc3[nH]ncc3c2)[nH]1 [Example 26] | < 300 nM
60 | COCCn1nc(-c2ccc(C(=O)NCC(F)(F)F)cc2)nc1Nc1ccc2[nH]ncc2c1C1CC1 [Example 438] | < 300 nM
61 | CN1CCc2cc(-c3nc(Nc4ccc5[nH]ncc5c4Cl)n(C)n3)ccc2C1=O [Example 97] | < 300 nM
62 | COc1cc(-c2nc(Nc3ccc4[nH]ncc4c3Cl)n(C)n2)ccc1OCC(=O)NCC1(O)CC1 [Example 209] | < 300 nM
63 | Cn1nc(-c2cccc(N)c2)nc1Nc1ccc2[nH]ncc2c1Cl [Example 120] | 3000 to 10000 nM
64 | COc1ccc(-c2nc(Nc3ccc4[nH]ncc4c3Cl)n(C)n2)cc1Cl [Example 86] | < 300 nM
